# Reference: ChEMBL document CHEMBL1150068, “Antimalarial activity of sesquiterpenes from the marine sponge Acanthella klethra” (J Nat Prod, 1992)
# Key:
# KB = assay: Cytotoxicity against human KB cells; assay type: cell-based
# Plasmodium falciparum [1] = assay: Antimalarial activity against chloroquine-resistant Plasmodium falciparum W2; assay type: functional, organism-based
# Plasmodium falciparum [2] = assay: Antimalarial activity against chloroquine-sensitive Plasmodium falciparum D6; assay type: functional, organism-based
structure (smiles),measurement,setting,value
C=C(C)[C@H]1CC[C@@]2(C)CCC[C@@](C)(N=C=S)[C@@H]2C1,IC50,KB,> 20 µg/mL
same,IC50,Plasmodium falciparum [1],0.55 µg/mL
same,IC50,Plasmodium falciparum [2],4 µg/mL
C=C[C@H]1CN2CC[C@H]1C[C@H]2[C@H](O)c1ccnc2ccc(OC)cc12 [QUININE],IC50,KB,> 20 µg/mL
same,IC50,Plasmodium falciparum [1],0.0238 µg/mL
same,IC50,Plasmodium falciparum [2],0.0102 µg/mL
C[C@@H]1CC[C@H]2[C@@H](C)C(=O)O[C@@H]3O[C@@]4(C)CC[C@@H]1[C@]32OO4 [ARTEMISININ],IC50,KB,> 20 µg/mL
same,IC50,Plasmodium falciparum [1],0.00071 µg/mL
same,IC50,Plasmodium falciparum [2],0.0041 µg/mL
CC1=C[C@]2(CC1)[C@H](C)CC[C@@H](C(C)C)[C@H]2N=C=S,IC50,KB,> 20 µg/mL
same,IC50,Plasmodium falciparum [1],3.11 µg/mL
same,IC50,Plasmodium falciparum [2],12.3 µg/mL
[C-]#[N+][C@@H]1[C@H](C(C)C)CC[C@@H](C)[C@@]12C=C(C)CC2 [AXISONITRILE 3],IC50,KB,> 20 µg/mL
same,IC50,Plasmodium falciparum [1],0.0165 µg/mL
same,IC50,Plasmodium falciparum [2],0.142 µg/mL
C[C@H]1CCC[C@]2(C)CC[C@H](C(C)(C)N=C=S)C=C12,IC50,KB,> 20 µg/mL
same,IC50,Plasmodium falciparum [1],0.61 µg/mL
same,IC50,Plasmodium falciparum [2],2.24 µg/mL
C=C(C)[C@@H]1CC[C@@]2(C)CCC[C@@](C)(N=C=S)[C@@H]2C1,IC50,KB,> 20 µg/mL
same,IC50,Plasmodium falciparum [1],> 10 µg/mL
same,IC50,Plasmodium falciparum [2],> 10 µg/mL
OC(c1cc(C(F)(F)F)nc2c(C(F)(F)F)cccc12)C1CCCCN1 (stereo not drawn) [MEFLOQUINE],IC50,Plasmodium falciparum [1],0.00049 µg/mL
same,IC50,Plasmodium falciparum [2],0.0082 µg/mL
